# Assay results: ChEMBL document CHEMBL1130643, “Synthesis of benzanilide derivatives as dual acting agents with alpha 1-adrenoceptor antagonistic action and steroid 5-alpha reductase inhibitory activity” (Bioorg Med Chem Lett, 1998)
# How the values were obtained:
# [1] = target: T1, Steroid 5-alpha-reductase (Rattus norvegicus, UniProt P24008+P31214); experiment: Inhibitory activity against prostatic 5-alpha reductase in Sprague-Dawley rat; assay type: protein assay
# T1 sequence (P24008 whole entry): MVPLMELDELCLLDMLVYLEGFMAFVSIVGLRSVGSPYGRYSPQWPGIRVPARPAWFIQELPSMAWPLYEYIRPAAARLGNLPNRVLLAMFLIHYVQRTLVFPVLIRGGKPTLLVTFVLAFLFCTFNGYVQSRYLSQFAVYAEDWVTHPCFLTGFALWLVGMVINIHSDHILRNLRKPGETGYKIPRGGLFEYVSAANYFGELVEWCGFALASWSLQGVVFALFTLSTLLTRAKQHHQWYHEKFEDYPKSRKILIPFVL
# T1 sequence (P31214 whole entry): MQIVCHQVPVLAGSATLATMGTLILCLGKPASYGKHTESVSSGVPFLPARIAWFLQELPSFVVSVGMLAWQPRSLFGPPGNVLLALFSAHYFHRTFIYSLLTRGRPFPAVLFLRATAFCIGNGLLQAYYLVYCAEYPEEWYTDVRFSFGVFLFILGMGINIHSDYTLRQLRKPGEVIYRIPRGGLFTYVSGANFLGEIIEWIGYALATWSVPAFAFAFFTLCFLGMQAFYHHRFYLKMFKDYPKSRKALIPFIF
# [2] = target: Adrenergic receptor alpha-1 (Oryctolagus cuniculus); experiment: Inhibition of phenylephrine-induced contractions in white rabbit prostate.
SMILES,IC50 [1] [nM],pA2 [2]
COc1ccccc1N1CCN(CCOc2ccc(C(=O)Nc3ccccc3OCCCC(=O)O)cc2)CC1,29000,6.6
COc1ccccc1N1CCN(CCC(Oc2ccc(C(=O)Nc3ccccc3OCCCC(=O)O)cc2)c2ccc(Br)cc2)CC1 (stereo not given),210,7
COc1ccc(C(CCN2CCN(c3ccccc3OC)CC2)Oc2ccc(C(=O)Nc3ccccc3OCCCC(=O)O)cc2)cc1 (stereo not given),170,6.7
COc1ccccc1N1CCN(CCCCOc2ccc(C(=O)Nc3ccccc3OCCCC(=O)O)cc2)CC1,43000,7.1
COc1ccccc1N1CCN(CCC(Oc2ccc(C(=O)Nc3ccccc3OCCCC(=O)O)cc2)c2ccc(CC(C)C)cc2)CC1 (stereo not given),39,5.7
COc1ccccc1N1CCN(CCC(Oc2ccc(C(=O)Nc3ccccc3OCCCC(=O)O)cc2)c2ccccc2)CC1 (stereo not given),1000,7.6
COc1ccccc1N1CCN(CCC(Oc2ccc(C(=O)Nc3ccccc3OCCCC(=O)O)cc2)c2ccc(C)cc2)CC1 (stereo not given),67,7.8
CCc1ccc(C(CCN2CCN(c3ccccc3OC)CC2)Oc2ccc(NC(=O)c3ccccc3OCCCC(=O)O)cc2)cc1 (stereo not given),130,6.7

# Other lines, results leading:
IC50 [1] [nM],pA2 [2],SMILES
41000,7,COc1ccccc1N1CCN(CCCOc2ccc(C(=O)Nc3ccccc3OCCCC(=O)O)cc2)CC1
,7.1,COc1ccccc1NC(=O)c1ccc(OCCCN2CCN(c3ccccc3OC)CC2)cc1
440,7.1,COc1ccccc1N1CCN(CCC(Oc2ccc(NC(=O)c3ccccc3OCCCC(=O)O)cc2)c2ccc(C)cc2)CC1 (stereo not given)
730,7.1,COc1ccccc1N1CCN(CCC(Oc2ccc(NC(=O)c3ccccc3OCCCC(=O)O)cc2)c2ccccc2)CC1 (stereo not given)
9500,7,COc1ccccc1N1CCN(CCCCCCOc2ccc(C(=O)Nc3ccccc3OCCCC(=O)O)cc2)CC1
910,6.6,COc1ccccc1N1CCN(CCCCC(Oc2ccc(C(=O)Nc3ccccc3OCCCC(=O)O)cc2)c2ccccc2)CC1 (stereo not given)
750,6.5,COc1ccccc1N1CCN(CCCC(Oc2ccc(C(=O)Nc3ccccc3OCCCC(=O)O)cc2)c2ccccc2)CC1 (stereo not given)
96,5.2,COc1ccccc1N1CCN(CCC(Oc2ccc(NC(=O)c3ccccc3OCCCC(=O)O)cc2)c2ccc(CC(C)C)cc2)CC1 (stereo not given)
70,7.4,CCc1ccc(C(CCN2CCN(c3ccccc3OC)CC2)Oc2ccc(C(=O)Nc3ccccc3OCCCC(=O)O)cc2)cc1 (stereo not given)
360,6.6,COc1ccccc1N1CCN(CCC(Oc2ccc(C(=O)Nc3ccccc3OCCCC(=O)O)cc2)c2cccc(C)c2)CC1 (stereo not given)
